Laboratory results as given in patent US5948437A, “Pharmaceutical compositions using thiazepine” (Zeneca Limited, priority 1997, dated 1999).
Counter-ions that a name gives are not always drawn.

Assays:
[1] = compound and its pharmaceutically acceptable salts; cited from earlier work
physchem = conditions: water

solubility thermodynamic (physchem) [µg/mL] | Compound | antidopaminergic activity [1]
 | OCCOCCN1CCN(C2=Nc3ccccc3Sc3ccccc32)CC1 [11-[4-[2-(2-hydroxyethoxy)ethyl]-1-piperazinyl]-dibenzo[b,f][1,4]thiazepine] | exhibit useful antidopaminergic activity
3290 | OCCOCCN1CCN(C2=Nc3ccccc3Sc3ccccc32)CC1 [hemifumarate salt, 11-[4-[2-(2-hydroxyethoxy)ethyl]-1-piperazinyl]dibenzo[b,f][1,4]-thiazepine] | 
